Results on 29 molecules are retold here after US12091402B2 (Avilar Therapeutics, Inc., priority 2021, dated 2024).

The target of this assay is T1, ASGPR (Homo sapiens, UniProt P07306).
T1 sequence (P07306 1-291): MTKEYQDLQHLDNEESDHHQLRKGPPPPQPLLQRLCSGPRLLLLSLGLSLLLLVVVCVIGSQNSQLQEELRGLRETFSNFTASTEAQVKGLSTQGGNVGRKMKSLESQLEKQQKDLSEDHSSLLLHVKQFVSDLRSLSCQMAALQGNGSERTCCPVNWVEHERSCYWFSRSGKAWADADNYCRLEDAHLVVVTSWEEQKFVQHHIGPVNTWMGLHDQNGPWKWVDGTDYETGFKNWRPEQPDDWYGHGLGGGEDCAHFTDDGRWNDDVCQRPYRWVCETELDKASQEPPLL
The experiment in a line: Affinity to ASGPR by surface plasmon resonance (SPR). In general terms: Surface plasmon resonance follows binding to a sensor surface in real time, without labels.

In the case of `O=C(O)CNC(COCCC(=O)NCCOCCOCCOCCOC[C@H]1OC[C@H](Nc2nccc(C(F)(F)F)n2)[C@@H](O)[C@H]1O)COCCC(=O)NCCOCCOCCOCCOC[C@H]1OC[C@H](Nc2nccc(C(F)(F)F)n2)[C@@H](O)[C@H]1O` [A132], the Kd is < 100 nM. Consider `[N-]=[N+]=NC[C@@]12CO[C@@H](O1)[C@H](Nc1nc(Cl)ns1)[C@@H](O)[C@H]2O` [A74, (1S,2R,3R,4R,5S)-1-(azidomethyl)-4-((3-chloro-1,2,4-thiadiazol-5-yl)amino)-6,8-dioxabicyclo[3.2.1]octane-2,3-diol], for which the Kd is < 1000 nM. Turning to `O=C(CCOCC(COCCC(=O)NCCOCCOCCOCCOC[C@H]1OC[C@H](Nc2nccc(C(F)(F)F)n2)[C@@H](O)[C@H]1O)NC(=O)COCCOCCOCC(=O)NCCN1C(=O)C=CC1=O)NCCOCCOCCOCCOC[C@H]1OC[C@H](Nc2nccc(C(F)(F)F)n2)[C@@H](O)[C@H]1O` [A130], the dissociation constant Kd is < 100 nM.

With `O=[N+]([O-])c1ccc(NCCOCCOCCOCCOC[C@H]2OC[C@@H](Nc3nc(Cl)ns3)[C@@H](O)[C@H]2O)c([N+](=O)[O-])c1` [Compound 24, (2R,3R,4R,5R)-5-((3-chloro-1,2,4-thiadiazol-5-yl)amino)-2-(13-((2,4-dinitrophenyl)amino)-2,5,8,11-tetraoxatridecyl)tetrahydro-2H-pyran-3,4-diol], the Kd is < 100 nM. As for `OC[C@@]12CO[C@@H](O1)[C@H](Nc1cc(Cl)cnc1Cl)[C@@H](O)[C@H]2O` [A44, (1S,2R,3R,4R,5S)-4-[(2,5-dichloro-3-pyridyl)amino]-1-(hydroxymethyl)-6,8-dioxabicyclo[3.2.1]octane-2,3-diol], the figure is < 1000 nM.

On to `O=C(NC[C@H]1OC[C@H](Nc2cncc(C(F)(F)F)n2)[C@@H](O)[C@H]1O)C12CC(C1)C2` [A102, N-(((2R,3R,4R,5S)-3,4-dihydroxy-5-((6-(trifluoromethyl)pyrazin-2-yl)amino)tetrahydro-2H-pyran-2-yl)methyl)bicyclo[1.1.1]pentane-1-carboxamide], for which the Kd was < 1000 nM. The molecule `O=C(O)COCCOCCOCCOC[C@H]1OC[C@H](Nc2nccc(C(F)(F)F)n2)[C@@H](O)[C@H]1O` [A25, 1-((2R,3R,4R,5S)-3,4-dihydroxy-5-((4-(trifluoromethyl)pyrimidin-2-yl)amino)tetrahydro-2H-pyran-2-yl)-2,5,8,11-tetraoxatridecan-13-oic acid] had an equilibrium dissociation constant (Kd) of 100 to 500 nM. For `NC(=O)c1sc(N[C@H]2CO[C@H](CO)[C@H](O)[C@@H]2O)nc1C(F)(F)F` [A54, 2-(((3S,4R,5R,6R)-4,5-dihydroxy-6-(hydroxymethyl)tetrahydro-2H-pyran-3-yl)amino)-4-(trifluoromethyl)thiazole-5-carboxamide], the Kd is > 20000 nM.

With `OC[C@H]1O[C@H](OCC2CO2)[C@H](Nc2nccc(C(F)(F)F)n2)[C@@H](O)[C@H]1O` (stereo partly drawn) [A76, (2R,3R,4R,5R,6S)-2-(hydroxymethyl)-6-(oxiran-2-ylmethoxy)-5-((4-(trifluoromethyl)pyrimidin-2-yl)amino)tetrahydro-2H-pyran-3,4-diol], the Kd is < 1000 nM.

`OCc1cnn(C[C@H]2OC[C@H](Nc3nccc(C(F)(F)F)n3)[C@@H](O)[C@H]2O)c1` [A62, (2R,3R,4R,5S)-2-((4-(hydroxymethyl)-1H-pyrazol-1-yl)methyl)-5-((4-(trifluoromethyl)pyrimidin-2-yl)amino)tetrahydro-2H-pyran-3,4-diol] registered a Kd of 1000 to 10000 nM.

As to `[N-]=[N+]=NCCCCCC(=O)NC(COCCC(=O)NCCOCCOCCOCCOC[C@H]1OC[C@H](Nc2cncc(C(F)(F)F)n2)[C@@H](O)[C@H]1O)COCCC(=O)NCCOCCOCCOCCOC[C@H]1OC[C@H](Nc2cncc(C(F)(F)F)n2)[C@@H](O)[C@H]1O` [A2, 3,3′-((2-(6-azidohexanamido)propane-1,3-diyl)bis(oxy))bis(N-(1-((2R,3R,4R,5S)-3,4-dihydroxy-5-((6-(trifluoromethyl)pyrazin-2-yl)amino)tetrahydro-2H-pyran-2-yl)-2,5,8,11-tetraoxatridecan-13-yl)propanamide)], the Kd was < 100 nM. As to `O[C@@H]1[C@H](O)[C@@H](Nc2cncc(C(F)(F)F)n2)CO[C@@H]1CNc1cnccn1` [A122], the dissociation constant Kd is < 1000 nM.

Take `OC[C@@]12CO[C@@H](O1)[C@H](Nc1ncc(C(F)(F)F)c(Cl)n1)[C@@H](O)[C@H]2O` [A115, (1S,2R,3R,4R,5S)-4-((4-chloro-5-(trifluoromethyl)pyrimidin-2-yl)amino)-1-(hydroxymethyl)-6,8-dioxabicyclo[3.2.1]octane-2,3-diol]: the Kd is < 1000 nM. As for `CN(C[C@H]1OC[C@H](Nc2cncc(C(F)(F)F)n2)[C@@H](O)[C@H]1O)c1ccccc1` [A99, (2R,3R,4R,5S)-2-((methyl(phenyl)amino)methyl)-5-((6-(trifluoromethyl)pyrazin-2-yl)amino)tetrahydro-2H-pyran-3,4-diol], the figure is < 1000 nM; as for `[N-]=[N+]=NCCCCCC(=O)NC(COCc1cn(CCOCCOCCOCCOC[C@H]2OC[C@H](Nc3nccc(C(F)(F)F)n3)[C@@H](O)[C@H]2O)nn1)COCc1cn(CCOCCOCCOCCOC[C@H]2OC[C@H](Nc3nccc(C(F)(F)F)n3)[C@@H](O)[C@H]2O)nn1` [A15, 6-azido-N-(1,3-bis((1-(1-((2R,3R,4R,5S)-3,4-dihydroxy-5-((4-(trifluoromethyl)pyrimidin-2-yl)amino)tetrahydro-2H-pyran-2-yl)-2,5,8,11-tetraoxatridecan-13-yl)-1H-1,2,3-triazol-4-yl)methoxy)propan-2-yl)hexanamide], < 100 nM.

For the molecule `O[C@@H]1[C@H](O)[C@@H](Nc2nccc(C(F)(F)F)n2)CO[C@@H]1c1nc2ccc(Br)cc2[nH]1` [A94, (2R,3R,4R,5S)-2-(6-bromo-1H-benzo[d]imidazol-2-yl)-5-((4-(trifluoromethyl)pyrimidin-2-yl)amino)tetrahydro-2H-pyran-3,4-diol], the Kd was > 20000 nM.

For the molecule `C[C@@H]1O[C@H](CO)[C@H](O)[C@H](O)[C@H]1N=[N+]=[N-]` [A50, (2R,3R,4R,5R,6S)-5-azido-2-(hydroxymethyl)-6-methyltetrahydro-2H-pyran-3,4-diol], the equilibrium dissociation constant (Kd) is > 20000 nM. The molecule `OC[C@H]1OC[C@H](Nc2ncnn3cccc23)[C@@H](O)[C@H]1O` [A49, (2R,3R,4R,5S)-2-(hydroxymethyl)-5-(pyrrolo[2,1-f][1,2,4]triazin-4-ylamino)tetrahydro-2H-pyran-3,4-diol] showed a Kd of 1000 to 10000 nM.

For `OC[C@H]1OC[C@H](Nc2nccnc2C(F)(F)F)[C@@H](O)[C@H]1O` [A101, (2R,3R,4R,5S)-2-(hydroxymethyl)-5-((3-(trifluoromethyl)pyrazin-2-yl)amino)tetrahydro-2H-pyran-3,4-diol], the Kd was 1000 to 10000 nM. Molecule `C=CCO[C@H]1O[C@H](Cn2cc(CO)nn2)[C@H](O)[C@H](O)[C@H]1Nc1nccc(C(F)(F)F)n1` [A64, (2R,3R,4R,5R,6S)-6-(allyloxy)-2-((4-(hydroxymethyl)-1H-1,2,3-triazol-1-yl)methyl)-5-((4-(trifluoromethyl)pyrimidin-2-yl)amino)tetrahydro-2H-pyran-3,4-diol] registered a Kd of 1000 to 10000 nM.

On to `N#Cc1cc(F)cnc1N[C@H]1[C@H]2OC[C@](CO)(O2)[C@H](O)[C@@H]1O` [A40, 2-[[(1S,2R,3R,4R,5S)-2,3-dihydroxy-1-(hydroxymethyl)-6,8-dioxabicyclo[3.2.1]octan-4-yl]amino]-5-fluoro-pyridine-3-carbonitrile], for which the Kd lay in the range of 1000 to 10000 nM.

`CN(C)C[C@H]1OC[C@H](Nc2cncc(C(F)(F)F)n2)[C@@H](O)[C@H]1O` [A126]: the Kd was < 1000 nM. For `COc1cccc(N(C)C[C@H]2OC[C@H](Nc3cncc(C(F)(F)F)n3)[C@@H](O)[C@H]2O)c1` [A106, (2R,3R,4R,5S)-2-(((3-methoxyphenyl)(methyl)amino)methyl)-5-((6-(trifluoromethyl)pyrazin-2-yl)amino)tetrahydro-2H-pyran-3,4-diol], the Kd is < 1000 nM. `CCOC(=O)c1cnc(C(F)(F)F)nc1N[C@H]1[C@H]2OC[C@](CO)(O2)[C@H](O)[C@@H]1O` [A110, ethyl 4-(((1S,2R,3R,4R,5S)-2,3-dihydroxy-1-(hydroxymethyl)-6,8-dioxabicyclo[3.2.1]octan-4-yl)amino)-2-(trifluoromethyl)pyrimidine-5-carboxylate] displayed a Kd of 1000 to 10000 nM. In turn, `COc1cccc(-n2cc([C@H]3OC[C@H](Nc4nccc(C(F)(F)F)n4)[C@@H](O)[C@H]3O)nn2)c1` [A61, (2R,3R,4R,5S)-2-(1-(3-methoxyphenyl)-1H-1,2,3-triazol-4-yl)-5-((4-(trifluoromethyl)pyrimidin-2-yl)amino)tetrahydro-2H-pyran-3,4-diol] yielded a Kd of 10000 to 100000 nM.

On to `OC[C@@]12CO[C@@H](O1)[C@H](Nc1nccc(C(F)(F)F)c1F)[C@@H](O)[C@H]2O` [A42, (1S,2R,3R,4R,5S)-4-[[3-fluoro-4-(trifluoromethyl)-2-pyridyl]amino]-1-(hydroxymethyl)-6,8-dioxabicyclo[3.2.1]octane-2,3-diol], for which the dissociation constant (Kd) lay within 10000 to 100000 nM. On to `C=CCO[C@H]1O[C@H](Cn2cc(-c3cccc(OC)c3)nn2)[C@H](O)[C@H](O)[C@H]1Nc1nccc(C(F)(F)F)n1` [A58, (2R,3R,4R,5R,6S)-6-(allyloxy)-2-((4-(3-methoxyphenyl)-1H-1,2,3-triazol-1-yl)methyl)-5-((4-(trifluoromethyl)pyrimidin-2-yl)amino)tetrahydro-2H-pyran-3,4-diol], for which the Kd was 1000 to 10000 nM. Turning to `C[C@@H]1O[C@H](CO)[C@H](O)[C@H](O)[C@H]1Nc1nc(Cl)ns1` [A56, (2R,3R,4R,5R,6S)-5-((3-chloro-1,2,4-thiadiazol-5-yl)amino)-2-(hydroxymethyl)-6-methyltetrahydro-2H-pyran-3,4-diol], the Kd lay within 1000 to 10000 nM. Consider `OC[C@H]1OC[C@H](Nc2cc(C(F)(F)F)nc(Cl)n2)[C@@H](O)[C@H]1O` [A78, (2R,3R,4R,5S)-5-((2-chloro-6-(trifluoromethyl)pyrimidin-4-yl)amino)-2-(hydroxymethyl)tetrahydro-2H-pyran-3,4-diol], for which the Kd is > 20000 nM.

The Kd is the free concentration of one partner at which half of the binding sites on the other are occupied at equilibrium, for simple one-to-one binding. Low readings indicate a tighter complex, high ones a looser complex.
